Reference: ChEMBL document CHEMBL1152055, “Synthesis and biological evaluation of four stereoisomers of PDMP-analogue, N-(2-decylamino-3-hydroxy-3-phenylprop-1-yl)--valienamine, and related compounds” (Bioorg Med Chem Lett, 1997)

Legend:
[1] = molecular target: T1, Lysosomal acid glucosylceramidase (Mus musculus, UniProt P17439); experiment: Compound tested for inhibitory activity against beta-glucocerebrosidase enzyme
T1 sequence (P17439 whole entry): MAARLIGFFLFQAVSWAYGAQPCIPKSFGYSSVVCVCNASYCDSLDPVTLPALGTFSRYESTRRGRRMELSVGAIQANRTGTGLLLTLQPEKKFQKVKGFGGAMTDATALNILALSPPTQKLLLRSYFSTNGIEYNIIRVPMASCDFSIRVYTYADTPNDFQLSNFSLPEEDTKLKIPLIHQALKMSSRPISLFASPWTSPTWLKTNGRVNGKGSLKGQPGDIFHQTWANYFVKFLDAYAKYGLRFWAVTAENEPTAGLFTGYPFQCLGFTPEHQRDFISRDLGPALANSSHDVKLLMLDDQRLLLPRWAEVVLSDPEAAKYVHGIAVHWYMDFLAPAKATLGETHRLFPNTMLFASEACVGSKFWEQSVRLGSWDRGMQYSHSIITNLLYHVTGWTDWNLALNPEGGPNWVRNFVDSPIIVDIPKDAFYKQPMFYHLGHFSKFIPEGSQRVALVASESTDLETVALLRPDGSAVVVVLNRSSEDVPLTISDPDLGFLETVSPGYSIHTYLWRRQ

[2] = molecular target: T2, Ceramide glucosyltransferase (Homo sapiens, UniProt Q16739); experiment: Compound tested for inhibitory activity against glucosylceramide synthase enzyme at a concentration of 1.0*10e-4M; no inhibitory activity
T2 sequence (Q16739 whole entry): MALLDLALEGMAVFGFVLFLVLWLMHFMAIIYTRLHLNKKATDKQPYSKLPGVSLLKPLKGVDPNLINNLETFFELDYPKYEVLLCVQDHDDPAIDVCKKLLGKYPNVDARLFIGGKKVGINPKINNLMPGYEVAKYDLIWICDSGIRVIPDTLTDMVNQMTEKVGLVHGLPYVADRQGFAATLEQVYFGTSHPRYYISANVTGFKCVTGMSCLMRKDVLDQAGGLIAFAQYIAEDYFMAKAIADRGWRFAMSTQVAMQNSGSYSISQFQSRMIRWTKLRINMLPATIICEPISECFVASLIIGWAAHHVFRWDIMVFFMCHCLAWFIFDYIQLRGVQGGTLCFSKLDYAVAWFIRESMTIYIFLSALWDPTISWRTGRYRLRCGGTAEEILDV

[3] = molecular target: T1, Lysosomal acid glucosylceramidase; experiment: Compound tested for inhibitory activity against beta-glucocerebrosidase enzyme at a concentration of 1.0*10e-4M; no inhibitory activity
[4] = molecular target: T2, Ceramide glucosyltransferase; experiment: Compound tested for inhibitory activity against glucosylceramide synthase enzyme

IC50 [1] [µM]	IC50 [2]	IC50 [3]	IC50 [4] [µM]	SMILES
0.7	No inhibition			CCCCCCCCCC(=O)N[C@H](CN[C@@H]1C=C(CO)[C@@H](O)[C@H](O)[C@@H]1O)[C@H](O)c1ccccc1
	No inhibition	No inhibition		CCCCCCCCCC(=O)N[C@H](CN[C@H]1C=C(CO)[C@@H](O)[C@H](O)[C@@H]1O)[C@H](O)c1ccccc1
0.3	No inhibition			CCCCCCCCCC(=O)N[C@@H](CN[C@@H]1C=C(CO)[C@@H](O)[C@H](O)[C@@H]1O)[C@@H](O)c1ccccc1
0.7	No inhibition			CCCCCCCCCC(=O)N[C@H](CN[C@@H]1C=C(CO)[C@@H](O)[C@H](O)[C@@H]1O)[C@@H](O)c1ccccc1
0.5	No inhibition			CCCCCCCCCC(=O)N[C@@H](CN[C@@H]1C=C(CO)[C@@H](O)[C@H](O)[C@@H]1O)[C@H](O)c1ccccc1
		No inhibition	23	CCCCCCCCCC(=O)N[C@H](CN1CCOCC1)[C@H](O)c1ccccc1
5	No inhibition			CCCCCCCCCC(=O)N[C@@H](CNC1CC(CO)C(O)C(O)C1O)[C@H](O)c1ccccc1 (stereo not given in full)
20	No inhibition			CCCCCCCCCC(=O)N[C@@H](CNC1CC(CO)C(O)C(O)C1O)[C@@H](O)c1ccccc1 (stereo not given in full)
7	No inhibition			CCCCCCCCCC(=O)N[C@H](CNC1CC(CO)C(O)C(O)C1O)[C@@H](O)c1ccccc1 (stereo not given in full)
10	No inhibition			CCCCCCCCCC(=O)N[C@H](CNC1CC(CO)C(O)C(O)C1O)[C@H](O)c1ccccc1 (stereo not given in full)
